Assay results from patent publication US20060115863A1, “Inositol phosphate detection assays” (AstraZeneca AB, priority 2002, published 2006).

Tests used:
[1] = target: human neurokinin NK1 receptors (Homo sapiens, UniProt P25103); test: NK1-mediated PI hydrolysis measured with Zr4+-SPA beads (IMAC-SPA); type: cell-based
Procedure: CHO cells stably expressing human neurokiuin NK1 receptors were maintained in 5% CO2 and at 37° C. in Ham's F12 medium supplemented with 10% fetal bovine serum (FBS) and 0.5 mg/ml G418. For experiments, the cells were plated onto 96-well plates in inositol-free DMEM medium containing 10% FBS and 5 μCi/ml [3 H]inositol (0.5 μCi/well). After 16-48 hr incubation, the medium was removed and the cells were incubated for 15 min with or without NK1 antagonist in phosphate-free lithium-containing Hanks solution (PFLH) (composition: 20 mM HEPES, pH 7.4, 1.25 mM MgCl2, 1.25 mM CaCl2, 5 mM KCl, 125 mM NaCl, 10 mM LiCl and 10 mM glucose). […] At the end of the incubation, the agonist solution was removed and 100 μl ice-cold 20 mM formic acid solution (pH3.0) containing 2 mM myo-inositol was added in each well to release inositol phosphates from the cells. After incubation at 4° C. for over 10 min, the samples were transferred to a white opaque plate, and 100 μl of metal ion loaded IMAC-SPA beads added to each well. Alternatively, IMAC-SPA beads could be added directly to the cell plate to eliminate the sample transfer step. The amount of [^3H] inositol phosphates generated in the cells was then determined by measurement of the radioactivity on the SPA beads on TopCount® NXT®. […]

PDGF receptor = test: PDGF receptor-mediated PI hydrolysis in quiescent Swiss 3T3 cells measured with Zr4+-SPA beads; type: cell-based
Procedure: Swiss 3 T 3 cells were maintained in DMEM medium supplemented with 10% heat-inactivated calf serum. For PI hydrolysis assay, the cells were grown in 96-well plates in [^3H]inositol-containing medium for 16-48 hr, then deprived of serum for 24 hr. The cells were stimulated with PDGF-BB for 45-60 min and the inositol phosphate accumulated in the cells was measured by IMAC-SPA in the same way as described for NK1 receptors.
The PDGF receptor belongs to the superfamily of tyrosine kinase-linked growth factor receptors. Stimulation of the PDGF receptor leads to activation of PLC-y through Ras-related GTPase (Ji et al., 1999, Mol. Cell. Biol., 1999. 19:49614970; Wang et al., 1998, Mol. Cell. Biol., 18:590-597; Heldin et al., 1998, Biochim. Biophys. Acta, 1378:F79-113; Stice et al., 1999, Front. Biosci., 4:D72-86).

Chain of human neurokinin NK1 receptors (P25103 whole entry): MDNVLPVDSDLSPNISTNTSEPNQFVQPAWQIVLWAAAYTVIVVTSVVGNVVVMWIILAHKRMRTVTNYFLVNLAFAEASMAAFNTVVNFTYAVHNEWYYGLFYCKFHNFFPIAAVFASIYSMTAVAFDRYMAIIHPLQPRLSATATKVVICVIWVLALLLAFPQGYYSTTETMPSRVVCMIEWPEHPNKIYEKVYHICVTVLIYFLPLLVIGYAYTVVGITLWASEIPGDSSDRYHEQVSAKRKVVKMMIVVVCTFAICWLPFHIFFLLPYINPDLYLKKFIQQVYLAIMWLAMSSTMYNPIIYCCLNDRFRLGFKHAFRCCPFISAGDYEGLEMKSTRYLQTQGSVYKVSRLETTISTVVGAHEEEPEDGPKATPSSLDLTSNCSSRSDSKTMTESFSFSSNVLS

In the case of `FC(F)(F)c1cc(CO[C@H]2CCCN[C@H]2c2ccccc2)cc(C(F)(F)F)c1` [L-733060], the “inhibition of PI hydrolysis induced by Substance P (mode)” value ([1]; NK1 CHO cells, shifted the concentration-response curve to the right) is reported as “inhibited competitively”.

For “PDGF-BB: Human recombinant platelet-derived growth factor (PDGF-BB) from Calbiochem”, the “EC50 of stimulation of PI hydrolysis” value (PDGF receptor) was 3.0 ng/mL and the “maximal increase in inositol phosphate production” value (PDGF receptor) was 5 fold.

With Substance P the “increase in signal ([3H]inositol phosphate) over the control” value ([1]; 0.1 μM, CHO cells expressing NK1 receptor, Zr4+-loaded SPA beads, saline control) was 12 fold.
